Measurements as given in patent publication US6555709B1, “Aromatic amides, their preparation process and their use as pesticides” (Hoechst Schering AgrEvo S.A., priority 1997, dated 2003).

Columns and labels:
Type in all cases: in vivo
[1] = system: Diabrotica undecimpunctata; assay: Study of the activity on Diabrotica, treated filter paper; conditions: starting from a dose of 300 ppm; final stage larvae on treated filter paper; checked 24 hours after treatment
Protocol: D) Study of the Activity on Diabrotica The test insects were final stage larvae of Diabrotica undecimpunctata. A 9 cm disc of filter paper, placed at the bottom of Petri dish, was treated using 1 cm^3 of an acetone solution. After drying 15 larvae per dose were deposited and the mortality check was carried out 24 hours after treatment.

Heliothis Virescens = assay: Study on Heliothis virescens, treated artificial medium; conditions: starting from a dose of 300 ppm; neonate larva on treated artificial medium; checked after seven days; 25° C.
Protocol: C) Study on Heliothis Virescens The product was dissolved at the desired concentration in an acetone-water mixture (50-50). 50 μl of solution is deposited on the surface of small well containing approximately 2 grams of plant based artificial medium. One neonate larva of Heliothis virescens was then introduced into each well, which was sealed with a sheet of cellophane. The tests were kept at a temperature of 25° C., with a photoperiod of twelve hours., The mortality of the larvae was checked after seven days.

Spodoptera Littoralis = assay: Study on Spodoptera littoralis, treated haricot leaves; conditions: starting from a dose of 300 ppm; larvae on dipped haricot leaves; checked after seven days; 25° C.
Protocol: B) Study on Spodoptera Littoralis The product was dissolved at the desired concentration in an acetone-water mixture (50-50). Haricot leaves (Phaseolus vulgaris, var. […]) were immersed for five seconds in the solution, then left to dry in a Petri dish for one hour. Ten larvae of Spodoptera littoralis were then added to each dish. These are were at a temperature of 25° C., with a photoperiod of twelve hours. After seven days, the mortality of the larvae was checked and the foliar surface consumed is evaluated.

Phaedon Cochleariae = assay: Study on Phaedon cochleariae, treated Chinese cabbage foliar disks; conditions: dose of 300 ppm; adults on dipped Chinese cabbage disks; checked after seven days; 25° C.
Protocol: A) Study on Phaedon Cochleariae The product was dissolved at the desired concentration in an acetone-water mixture (50-50). Foliar disks of Chinese cabbage (Brassica pekinensis) were immersed for five seconds in the solution, then left to dry for one hour. Ten adults (a mixture of males and females) were added into a Petri dish containing a foliar disk. These were kept at a temperature of 25° C., with a photoperiod of twelve hours. After seven days, the mortality of the insects was checked and the foliar surface consumed is evaluated.

Structure (SMILES) | activity (mortality) [1] | activity (mortality of the larvae) (Heliothis Virescens) | activity (mortality of the larvae and foliar surface consumed) (Spodoptera Littoralis) | activity (mortality of the insects and foliar surface consumed) (Phaedon Cochleariae)
CC(C)C(C)NC(=O)c1ccc(Cc2ccc3cc(Cl)ccc3c2)cc1 (stereo not shown) [Product L] | very good activity | very good activity | – | –
Cc1ccccc1NC(=O)c1ccc(CC2CCc3c(ccc(Cl)c3Cl)C2F)cc1 (stereo not shown) [Product J] | – | very good activity | very good activity | –
Cc1ccccc1NC(=O)c1ccc(CC2=Cc3ccc(Cl)c(Cl)c3CC2)cc1 [Product A] | very good activity | very good activity | very good activity | very useful activity
Cc1ccccc1NC(=O)c1ccc(Cc2ccc3c(c2)CC(Br)C(Br)C3)cc1 (stereo not shown) [Product I] | – | very good activity | very good activity | –
Cc1ccccc1NC(=O)c1ccc(CC2=Cc3ccc(I)cc3CC2)cc1 [Product G] | – | very good activity | very good activity | –
Cc1ccccc1NC(=O)c1ccc(Cc2ccc3cc(Cl)ccc3c2)cc1 [Product B] | – | very good activity | very good activity | –
C=C(NC(C)C(C)C)c1ccc(Cc2ccc3cc(Cl)c(Cl)cc3c2)cc1 (stereo not shown) [Product M] | very good activity | very good activity | – | –
Cc1ccccc1NC(=O)c1ccc(CC2=Cc3cc(Br)c(Br)cc3CC2)cc1 [Product H] | – | very good activity | very good activity | –
Cc1ccccc1NC(=O)c1ccc(Cc2ccc3c(Br)cccc3c2)cc1 [Product C] | – | very good activity | very good activity | –
Cc1ccccc1NC(=O)c1ccc(CC2=Cc3ccc(Br)cc3CC2)cc1 [Product E] | – | very good activity | very good activity | –
Cc1ccccc1NC(=O)c1ccc(CC2CCc3cc(I)ccc3C2)cc1 (stereo not shown) [Product F] | – | very good activity | very good activity | –
O=C(Nc1ccccc1)c1ccc(Cc2ccc3cc(Cl)c(Cl)cc3c2)cc1 [Product K] | – | very good activity | very good activity | –
Cc1ccccc1NC(=O)c1ccc(Cc2ccc3cc(Br)ccc3c2)cc1 [Product D] | – | very good activity | very good activity | –
